# In PMC6792352, “Limited Chemical Structural Diversity Found to Modulate Thyroid Hormone Receptor in the Tox21 Chemical Library” (Environmental Health Perspectives, 2019):
# Structures can show the parent of a compound that is named as a salt. Non-standard residues stand in square brackets, D forms with d. Residues, ends and D or L forms follow the SMILES beside them. pGlu = O=C1CC[C@@H](C(=O)O)N1
# Experiment: in vitro
# Details: rat, gh3-tre-luc cells
SMILES,CC50 at 24 h (AC50 (uM) modified / 1000),also measured
"CNC(=O)N(c1ccccc1)c1ccccc1 [N'-Methyl-N,N-diphenylurea]",> 90 µM,–
CCOC(=O)[C@H](CCc1ccccc1)N[C@@H](C)C(=O)N(CC(=O)O)C1Cc2ccccc2C1 [Delapril hydrochloride],> 50 µM,–
COC(=O)[C@H]1[C@@H](OC(=O)c2ccccc2)C[C@@H]2CC[C@H]1N2C [(-)-Cocaine hydrochloride],> 90 µM,–
N[C@H](Cc1c[nH]c2ccccc12)C(=O)O [d-Tryptophan],> 90 µM,–
CN [Methylammonium nitrate],> 100 µM,–
CC(C)[C@@H](C)/C=C/[C@@H](C)[C@H]1CC[C@H]2/C(=C/C=C3\C[C@@H](O)CC[C@@H]3C)CCC[C@]12C [Dihydrotachysterol],> 50 µM,–
"O=C(O)c1snc(Cl)c1Cl [3,4-Dichloro-5-isothiazolecarboxylic acid]",> 90 µM,–
CCCCc1ccc(N)cc1 [4-Butylaniline],> 90 µM,–
CC(C)(C)CC(=O)OCC(=O)[C@@]12OC(C)(C)O[C@@H]1C[C@H]1[C@@H]3CCC4=CC(=O)C=C[C@]4(C)[C@@]3(F)[C@@H](O)C[C@@]12C [Triamcinolone hexacetonide],> 50 µM,–
C[C@@H]1CC[C@@]2(OC1)O[C@H]1[C@@H](O)[C@H]3[C@@H]4CC[C@H]5C[C@@H](O[C@@H]6O[C@H](CO)[C@H](O[C@@H]7O[C@H](CO)[C@@H](O)[C@H](O[C@@H]8OC[C@@H](O)[C@H](O)[C@H]8O)[C@H]7O[C@@H]7O[C@H](CO)[C@H](O)[C@H](O[C@@H]8O[C@H](CO)[C@@H](O)[C@H](O)[C@H]8O)[C@H]7O)[C@H](O)[C@H]6O)[C@H](O)C[C@]5(C)[C@H]4CC[C@]3(C)[C@H]1[C@@H]2C [Digitonin],1.67 µM,–
O=C(O)CCCCC(=O)O [Hexanedioic acid],> 90 µM,–
COCC(C)O (centres unmarked) [1-Methoxy-2-propanol],> 90 µM,–
O=C(OCCc1ccccc1)c1ccccc1 [2-Phenylethyl benzoate],> 90 µM,–
O=Cc1ccc(Cl)c([N+](=O)[O-])c1 [4-Chloro-3-nitrobenzaldehyde],> 90 µM,–
CN1[C@@H]2CCC[C@H]1C[C@@H](NC(=O)c1nn(C)c3ccccc13)C2 [Granisetron hydrochloride],> 50 µM,–
"O=C(O)c1nc(Cl)c(Cl)c(Cl)c1Cl [3,4,5,6-Tetrachloropyridine-2-carboxylic acid]",> 90 µM,–
CNC(=O)Oc1cccc2c1OC(C)(C)C2 [Carbofuran],> 90 µM,–
Nc1ccc2cc3ccc(N)cc3nc2c1 [Proflavin hydrochloride],> 90 µM,–
CCNS(=O)(=O)C(F)(F)C(F)(F)C(F)(F)C(F)(F)C(F)(F)C(F)(F)C(F)(F)C(F)(F)F [N-Ethylperfluorooctanesulfonamide],> 90 µM,–
"CCC(C)(CCCC(C)C)OC(C)=O (centres unmarked) [3,7-Dimethyloctan-3-yl acetate]",> 90 µM,–
CCN(CC)CCNC(=O)c1cc(Cl)c(N)cc1OC [Metoclopramide],> 50 µM,–
Cc1cccc2sc(N)nc12 [2-Amino-4-methylbenzothiazole],> 90 µM,–
c1ccc2c(c1)OCC(CN1CCCCC1)O2 (centres unmarked) [Piperoxan],> 50 µM,–

SMILES,CC50 at 24 h (AC50 (uM) modified / 1000),also measured
N=C(N)NC(=O)c1nc(Cl)c(N)nc1N [Amiloride hydrochloride],> 90 µM,–
CCC=C1OC(=O)c2ccccc21 [3-Propylidenephthalide],> 90 µM,–
"O=C=NC1CCC(CC2CCC(N=C=O)CC2)CC1 (centres unmarked) [1,1-Methylenebis(4-isocyanatocyclohexane)]",> 90 µM,–
"CCCCCCCCCCCCCC[N+](C)(C)C [Myristyltrimethylammonium chlorideN,N,N-Trimethyltetradecan-1-aminium chloride]",9.07 µM,–
c1ccc(/N=N/c2ccccc2)cc1 [Azobenzene],> 90 µM,–
Nc1ccc(F)cc1 [4-Fluoroaniline],> 100 µM,–
"SCCSCCS [2,2'-Sulfanediyldiethanethiol]",> 90 µM,–
c1ccc2ccccc2c1 [Naphthalene],> 90 µM,–
"C1CN2CCN1CC2 [1,4-Diazabicyclo[2.2.2]octane]",> 100 µM,–
CC(C)C[C@H](NC(=O)[C@@H](O)[C@H](N)Cc1ccccc1)C(=O)O [Ubenimex hydrochloride],1.62 µM,–
C[C@@H](NCCc1ccc(O)cc1)[C@@H](O)c1ccc(O)cc1 (racemic) [Ritodrine hydrochloride],> 50 µM,–
"c1ccc(-c2nc[nH]c2-c2ccccc2)cc1 [4,5-Diphenylimidazole]",> 50 µM,–
CC(=O)N(CC(O)CN(C(C)=O)c1c(I)c(C(=O)NC[C@@H](O)CO)c(I)c(C(=O)NC[C@@H](O)CO)c1I)c1c(I)c(C(=O)NC[C@@H](O)CO)c(I)c(C(=O)NC[C@@H](O)CO)c1I [Iodixanol],> 20 µM,–
C/C=C/C=O [Crotonaldehyde],> 90 µM,–
"CC(=O)C(C)=O [2,3-Butanedione]",> 90 µM,–
Cc1ccc2nc(-c3ccc(N)cc3)sc2c1S(=O)(=O)O,> 50 µM,–
O=C1N=C2SCCN2C(=O)C1Cc1ccc(Cl)cc1 (centres unmarked) [Nuclomedone],> 50 µM,–
Cc1ncc(C[n+]2csc(CCOP(=O)(O)O)c2C)c(N)n1 [Monophosphothiamine],> 50 µM,–
CCCc1ccccc1 [Propylbenzene],> 90 µM,–
COC(=O)CCCC(=O)OC [Dimethyl glutarate],> 90 µM,–
CC(C)C[C@H](CN)CC(=O)O [Pregabalin],–,"CC50 at 24 h (AC50 (uM) modified / 1000, Tox21_110001=Tox21_111475, viability, 1 nM T3 present, 24 h): > 50 µM"
BrC(Br)C(Br)(Br)Br [Pentabromoethane],–,"CC50 at 24 h (AC50 (uM) modified / 1000, Tox21_110001=Tox21_200571, viability, 1 nM T3 present, 24 h): 24.2 µM"
CCC(=O)OC(=O)CC [Propanoic anhydride],> 90 µM,–

SMILES,CC50 at 24 h (AC50 (uM) modified / 1000),also measured
CCN[C@@H]1C[C@H](N)[C@@H](O[C@H]2OC(CN)=CC[C@H]2N)[C@H](O)[C@H]1O[C@H]1OC[C@](C)(O)[C@H](NC)[C@H]1O [Netilmicin sulfate],> 50 µM,–
CCCCOCCOCCOC(=O)CCCCC(=O)OCCOCCOCCCC [Bis[2-(2-butoxyethoxy)ethyl] adipate],> 90 µM,–
Cc1cc(C(=O)NNCc2ccccc2)no1 [Isocarboxazid],> 20 µM,–
"CO[Si](CCCNCCN)(OC)OC [N-[3-(Trimethoxysilyl)propyl]ethane-1,2-diamine]",> 90 µM,–
Cc1cc(-c2ccccc2)nnc1NCCN1CCOCC1 [Minaprine dihydrochloride],> 50 µM,–
CN(C)[C@@H]1C(O)=C(C(N)=O)C(=O)[C@@]2(O)C(O)=C3C(=O)c4c(O)cccc4[C@@](C)(O)[C@H]3C[C@@H]12 [Tetracycline],> 90 µM,–
CO[C@@]1(NC(=O)CSCC#N)C(=O)N2C(C(=O)O)=C(CSc3nnnn3C)CS[C@@H]21 [Cefmetazole sodium],> 50 µM,–
CN(C)CCC=C1c2ccccc2C(C)(C)c2ccccc21 [Melitracen hydrochloride],19.6 µM,–
CC(=O)C1(C)CC2=C(CCCC2(C)C)CC1C (centres unmarked) [Isocyclemone E],> 90 µM,–
CC[C@H](C)[C@H](NC(=O)[C@H](Cc1ccccc1)NC(=O)[C@H](C)NC(=O)[C@H](CC(=O)O)NC(=O)[C@H](CCCCN)NC(=O)[C@H](CO)NC(=O)[C@@H]1CCCN1C(=O)[C@@H]1CCC(=O)N1)C(=O)NCC(=O)N[C@@H](CC(C)C)C(=O)N[C@@H](CCSC)C(N)=O [Eledoisin] ([pGlu]PSKDAFIGLM-NH2),–,"CC50 at 24 h (AC50 (uM) modified / 1000, Tox21_110001=Tox21_112815, viability, 1 nM T3 present, 24 h): > 50 µM"
CN(C)[C@@H]1C(O)=C(C(=O)NCN2CCCC2)C(=O)[C@@]2(O)C(O)=C3C(=O)c4c(O)cccc4[C@@](C)(O)[C@H]3C[C@@H]12 [Rolitetracycline],> 20 µM,–
O=C1OC(OC(=O)c2cccnc2Nc2cccc(C(F)(F)F)c2)c2ccccc21 (centres unmarked) [Talniflumate],> 50 µM,–
O=C(O)C[C@H](O)C[C@H](O)/C=C/c1c(C2CC2)nc2ccccc2c1-c1ccc(F)cc1 [Pitavastatin calcium],> 50 µM,–
NC(=O)N[C@@H](CCC(=O)O)C(=O)O [N-Carbamyl-L-glutamic acid],> 50 µM,–
CNC[C@H](O)[C@@H](O)[C@H](O)[C@H](O)CO [Meglumine],> 90 µM,–
CCCc1cc(C(N)=S)ccn1 [Prothionamide],> 50 µM,–
FC(F)(F)COCC(F)(F)F [Flurothyl],> 50 µM,–
C=CCN1CC[C@]23c4c5ccc(O)c4O[C@H]2C(=O)CC[C@@]3(O)[C@H]1C5 [Naloxone],> 50 µM,–
CC[N+](CC)(CC)CCOc1cccc(OCC[N+](CC)(CC)CC)c1OCC[N+](CC)(CC)CC [Gallamine triethiodide],> 50 µM,–
"OCC=CCO [2-Butene-1,4-diol]",> 90 µM,–
Cc1c[nH]c(=S)[nH]c1=O [5-Methyl-2-thiouracil],> 90 µM,–
CO[C@@H]1[C@@H](O[C@@H]2O[C@H](C)[C@@H](O[C@H]3C[C@@](C)(O)[C@@H](O)[C@H](C)O3)[C@H](N(C)C)[C@H]2O)[C@@H](CC=O)C[C@@H](C)[C@@H](O[C@H]2CC[C@H](N(C)C)[C@@H](C)O2)/C=C/C=C/C[C@@H](C)OC(=O)C[C@H]1OC(C)=O [Spiramycin II],32.1 µM,–
